Test results from the NIST ThermoML archive (doi:10.1016/j.fluid.2007.01.001).

Experiment: xn = mol fraction of the nth substance listed
Conditions: 101 kPa, Liquid; for viscosity: Capillary tube (Ostwald / Ubbelohde) method; for speed of sound: Frequency=2 MHz, Linear variable-path acoustic interferometer; for mass density: Pycnometric method

CCCCCC(C)O (stereo not given) [2-heptanol] + Cc1ccccc1
Conditions	mass density, 298.15 K [kg/m3]	mass density, 308.15 K [kg/m3]	speed of sound, 298.15 K [m/s]	speed of sound, 308.15 K [m/s]	viscosity, 298.15 K [mPa·s]	viscosity, 308.15 K [mPa·s]
x2 = 0	813.74	804.88	1314	1274	5.088	3.683
x2 = 0.0514	815.49	806.49	1309	1267	4.335	3.171
x2 = 0.1014	817.27	808.2	1303	1261	3.878	2.776
x2 = 0.1469	818.88	809.75	1298	1256	3.392	2.459
x2 = 0.2008	820.83	811.62	1293	1251	2.918	2.155
x2 = 0.2519	822.7	813.37	1288	1246	2.526	1.875
x2 = 0.3007	824.54	815.12	1283	1243	2.195	1.665
x2 = 0.348	826.33	816.85	1279	1238	1.9	1.485
x2 = 0.4006	828.45	818.86	1276	1235	1.622	1.332
x2 = 0.4526	830.61	820.97	1272	1232	1.396	1.199
x2 = 0.5002	832.62	822.92	1271	1230	1.24	1.078
x2 = 0.5501	834.9	825.13	1269	1229	1.064	0.992
x2 = 0.6011	837.36	827.5	1268	1228	0.931	0.904
x2 = 0.6574	840.16	830.22	1268	1229	0.853	0.818
x2 = 0.7011	842.5	832.53	1269	1230	0.778	0.756
x2 = 0.756	845.59	835.62	1273	1234	0.741	0.679
x2 = 0.8	848.22	838.25	1276	1238	0.691	0.641
x2 = 0.854	851.69	841.71	1283	1243	0.65	0.57
x2 = 0.9009	854.88	844.95	1289	1250	0.611	0.518
x2 = 0.9475	858.12	848.5	1296	1258	0.589	0.501

CCCCC(C)O (stereo not given) [2-hexanol] + Cc1ccccc1
Conditions	mass density, 298.15 K [kg/m3]	mass density, 308.15 K [kg/m3]	speed of sound, 298.15 K [m/s]	speed of sound, 308.15 K [m/s]	viscosity, 298.15 K [mPa·s]	viscosity, 308.15 K [mPa·s]
x2 = 0	810.84	801.75	1290	1255	4.105	2.92
x2 = 0.0497	812.91	803.69	1286	1251	3.548	2.566
x2 = 0.1007	815.08	805.85	1284	1245	3.087	2.273
x2 = 0.1588	817.53	808.16	1281	1243	2.741	1.935
x2 = 0.1993	819.29	809.89	1278	1240	2.427	1.703
x2 = 0.252	821.5	812.03	1274	1237	2.11	1.519
x2 = 0.2999	823.59	813.99	1270	1235	1.849	1.303
x2 = 0.3495	825.77	816.07	1269	1232	1.619	1.153
x2 = 0.4016	828.16	818.34	1267	1230	1.439	1.046
x2 = 0.4468	830.21	820.35	1265	1229	1.318	0.962
x2 = 0.5012	832.7	822.9	1265	1228	1.165	0.85
x2 = 0.5502	835.1	825.27	1264	1228	1.061	0.794
x2 = 0.6003	837.61	827.79	1263	1228	0.953	0.766
x2 = 0.6492	840.23	830.36	1267	1229	0.92	0.689
x2 = 0.7008	843.05	833.28	1268	1230	0.866	0.671
x2 = 0.7476	845.75	835.92	1271	1232	0.84	0.611
x2 = 0.8006	848.93	839.1	1276	1237	0.762	0.579
x2 = 0.8502	852.09	842.25	1280	1242	0.686	0.561
x2 = 0.8945	855.01	845.2	1286	1249	0.649	0.531
x2 = 0.9407	858.09	848.38	1294	1257	0.638	0.527

CCCCCCC(C)O (stereo not given) [2-octanol] + Cc1ccccc1
Conditions	mass density, 298.15 K [kg/m3]	mass density, 308.15 K [kg/m3]	speed of sound, 298.15 K [m/s]	speed of sound, 308.15 K [m/s]	viscosity, 298.15 K [mPa·s]	viscosity, 308.15 K [mPa·s]
x2 = 0	817.08	809.89	1328	1292	6.429	4.365
x2 = 0.0494	818.49	811.13	1323	1285	5.547	3.837
x2 = 0.0991	819.89	812.4	1317	1280	4.813	3.373
x2 = 0.1497	821.39	813.76	1313	1274	4.186	2.975
x2 = 0.1999	822.91	815.11	1306	1268	3.559	2.563
x2 = 0.2511	824.47	816.48	1299	1261	3.069	2.264
x2 = 0.2996	826.03	817.85	1294	1257	2.652	1.986
x2 = 0.354	827.83	819.46	1289	1250	2.239	1.685
x2 = 0.3998	829.43	820.91	1285	1247	1.966	1.488
x2 = 0.4469	831.12	822.49	1279	1243	1.69	1.276
x2 = 0.5	833.15	824.35	1277	1239	1.462	1.121
x2 = 0.5509	835.22	826.29	1273	1235	1.263	1.004
x2 = 0.5995	837.33	828.32	1271	1234	1.104	0.912
x2 = 0.6486	839.67	830.43	1270	1232	0.947	0.836
x2 = 0.701	842.33	832.94	1270	1233	0.88	0.77
x2 = 0.7477	844.88	835.37	1271	1234	0.791	0.707
x2 = 0.7989	847.89	838.32	1273	1237	0.716	0.649
x2 = 0.8513	851.18	841.6	1278	1241	0.628	0.569
x2 = 0.9	854.46	844.93	1286	1247	0.636	0.573
x2 = 0.9511	858.12	848.66	1294	1255	0.574	0.506
